Values after ≈ are worked out from the molar mass of the structure shown.
Assays:
Format in all cases: functional, cell-based, Homo sapiens
[1] = test system: A549; assay: In vitro cytotoxic activity against A 549 (non-small cell lung) using SRB (sulforhodamine B) assay
[2] = test system: HCT-15; assay: In vitro cytotoxic activity against HCT-15 (colon) using SRB (sulforhodamine B) assay
[3] = test system: SK-MEL-2; assay: In vitro cytotoxic activity against SK-MEL-2 (melanoma) using SRB (sulforhodamine B) assay
[4] = test system: SK-OV-3; assay: In vitro cytotoxic activity against SK-OV-3 (ovarian) using SRB (sulforhodamine B) assay
[5] = test system: XF498; assay: In vitro cytotoxic activity against XF 498 (CNS) using SRB (sulforhodamine B) assay
[6] = Homo sapiens, A549, read-out: IC50
[7] = Homo sapiens, HCT-15, read-out: IC50
[8] = Homo sapiens, SK-MEL-2, read-out: IC50
[9] = Homo sapiens, SK-OV-3, read-out: IC50
[10] = Homo sapiens, XF498, read-out: IC50

| Molecule | IC50 [1, 6] | IC50 [2, 7] | IC50 [3, 8] | IC50 [4, 9] | IC50 [5, 10] | IC50 ([1]; a549) | IC50 ([2]; hct-15) | IC50 ([3]; sk-mel-2) | IC50 ([4]; sk-ov-3) | IC50 ([5]; xf498) |
| --- | --- | --- | --- | --- | --- | --- | --- | --- | --- | --- |
| CCOc1ccc(NC2=C(Cl)C(=O)c3cccnc3C2=O)cc1 | 0.96 µg/mL (≈ 2.92 µM) | 0.32 µg/mL (≈ 0.973 µM) | 0.34 µg/mL (≈ 1.03 µM) | 0.33 µg/mL (≈ 1 µM) | 0.55 µg/mL (≈ 1.67 µM) | – | – | – | – | – |
| CCOc1ccc(NC2=C(Cl)C(=O)c3ccncc3C2=O)cc1 | 0.42 µg/mL (≈ 1.28 µM) | 0.03 µg/mL (≈ 0.0913 µM) | 0.04 µg/mL (≈ 0.122 µM) | 0.34 µg/mL (≈ 1.03 µM) | 0.27 µg/mL (≈ 0.821 µM) | – | – | – | – | – |
| Cc1ccc(NC2=C(Cl)C(=O)c3ccncc3C2=O)cc1 | 1.22 µg/mL (≈ 4.08 µM) | 0.11 µg/mL (≈ 0.368 µM) | 0.17 µg/mL (≈ 0.569 µM) | 1.54 µg/mL (≈ 5.16 µM) | 1.06 µg/mL (≈ 3.55 µM) | – | – | – | – | – |
| O=C1C(Cl)=C(Nc2ccc(Cl)cc2)C(=O)c2ncccc21 | 5.03 µg/mL (≈ 15.8 µM) | 0.34 µg/mL (≈ 1.07 µM) | 1.3 µg/mL (≈ 4.07 µM) | 1.33 µg/mL (≈ 4.17 µM) | 3.31 µg/mL (≈ 10.4 µM) | – | – | – | – | – |
| Cc1ccc(NC2=C(Cl)C(=O)c3cccnc3C2=O)cc1 | 1.14 µg/mL (≈ 3.82 µM) | 0.33 µg/mL (≈ 1.1 µM) | 0.42 µg/mL (≈ 1.41 µM) | 1.27 µg/mL (≈ 4.25 µM) | 1.26 µg/mL (≈ 4.22 µM) | – | – | – | – | – |
| O=C1/C(=N/c2ccc(O)cc2)C(Cl)=C(O)c2cccnc21 | 1.56 µg/mL (≈ 5.19 µM) | 0.86 µg/mL (≈ 2.86 µM) | 0.47 µg/mL (≈ 1.56 µM) | 1.27 µg/mL (≈ 4.22 µM) | 0.97 µg/mL (≈ 3.23 µM) | – | – | – | – | – |
| N#Cc1ccc(NC2=C(Cl)C(=O)c3ccncc3C2=O)cc1 | 0.8 µg/mL (≈ 2.58 µM) | 0.13 µg/mL (≈ 0.42 µM) | 0.22 µg/mL (≈ 0.71 µM) | 0.21 µg/mL (≈ 0.678 µM) | 0.3 µg/mL (≈ 0.969 µM) | – | – | – | – | – |
| O=C1C(Cl)=C(Nc2ccc(CCO)cc2)C(=O)c2cnccc21 | 0.61 µg/mL (≈ 1.86 µM) | 0.18 µg/mL (≈ 0.548 µM) | 0.08 µg/mL (≈ 0.243 µM) | 0.63 µg/mL (≈ 1.92 µM) | 0.06 µg/mL (≈ 0.183 µM) | – | – | – | – | – |
| O=C1C(Cl)=C(Nc2ccccc2)C(=O)c2cnccc21 | 1.28 µg/mL (≈ 4.5 µM) | 0.1 µg/mL (≈ 0.351 µM) | 0.52 µg/mL (≈ 1.83 µM) | 0.86 µg/mL (≈ 3.02 µM) | 0.96 µg/mL (≈ 3.37 µM) | – | – | – | – | – |
| O=C1C(Cl)=C(Nc2ccc(Br)cc2)C(=O)c2ncccc21 | 4.28 µg/mL (≈ 11.8 µM) | 0.34 µg/mL (≈ 0.935 µM) | 1.26 µg/mL (≈ 3.47 µM) | 0.92 µg/mL (≈ 2.53 µM) | 2.83 µg/mL (≈ 7.78 µM) | – | – | – | – | – |
| O=C1C(Cl)=C(Nc2ccccc2)C(=O)c2ncccc21 | 2.3 µg/mL (≈ 8.08 µM) | 0.74 µg/mL (≈ 2.6 µM) | 1.42 µg/mL (≈ 4.99 µM) | 1.34 µg/mL (≈ 4.71 µM) | 1.33 µg/mL (≈ 4.67 µM) | – | – | – | – | – |
| O=C1C(Cl)=C(Nc2ccc(Cl)cc2)C(=O)c2cnccc21 | 1.27 µg/mL (≈ 3.98 µM) | 0.31 µg/mL (≈ 0.971 µM) | 1.22 µg/mL (≈ 3.82 µM) | 1.86 µg/mL (≈ 5.83 µM) | 1.54 µg/mL (≈ 4.83 µM) | – | – | – | – | – |
| COc1ccc(NC2=C(Cl)C(=O)c3cccnc3C2=O)cc1 | 1.27 µg/mL (≈ 4.04 µM) | 0.33 µg/mL (≈ 1.05 µM) | 1.33 µg/mL (≈ 4.23 µM) | 1.3 µg/mL (≈ 4.13 µM) | 1.26 µg/mL (≈ 4 µM) | – | – | – | – | – |
| O=C1C(Cl)=C(Nc2ccc(I)cc2)C(=O)c2cnccc21 | 1.96 µg/mL (≈ 4.77 µM) | 0.1 µg/mL (≈ 0.244 µM) | 0.23 µg/mL (≈ 0.56 µM) | 0.29 µg/mL (≈ 0.706 µM) | 0.22 µg/mL (≈ 0.536 µM) | – | – | – | – | – |
| O=C1C(Cl)=C(Nc2ccc(F)cc2)C(=O)c2cnccc21 | 0.66 µg/mL (≈ 2.18 µM) | 0.07 µg/mL (≈ 0.231 µM) | 0.13 µg/mL (≈ 0.429 µM) | 0.17 µg/mL (≈ 0.562 µM) | 0.49 µg/mL (≈ 1.62 µM) | – | – | – | – | – |
| O=C1C(Cl)=C(Nc2ccc(Br)cc2)C(=O)c2cnccc21 | 1.1 µg/mL (≈ 3.03 µM) | 0.18 µg/mL (≈ 0.495 µM) | 0.66 µg/mL (≈ 1.82 µM) | 0.97 µg/mL (≈ 2.67 µM) | 1.28 µg/mL (≈ 3.52 µM) | – | – | – | – | – |
| N#Cc1ccc(NC2=C(Cl)C(=O)c3cccnc3C2=O)cc1 | 1.7 µg/mL (≈ 5.49 µM) | 1.45 µg/mL (≈ 4.68 µM) | 0.6 µg/mL (≈ 1.94 µM) | 0.55 µg/mL (≈ 1.78 µM) | 1.47 µg/mL (≈ 4.75 µM) | – | – | – | – | – |
| O=C1C(Cl)=C(Nc2ccc(I)cc2)C(=O)c2ncccc21 | 4.29 µg/mL (≈ 10.4 µM) | 1.27 µg/mL (≈ 3.09 µM) | 3.3 µg/mL (≈ 8.04 µM) | 1.62 µg/mL (≈ 3.95 µM) | 3.61 µg/mL (≈ 8.79 µM) | – | – | – | – | – |
| O=C1/C(=N/c2ccc(O)cc2)C(Cl)=C(O)c2ccncc21 | 0.36 µg/mL (≈ 1.2 µM) | 0.05 µg/mL (≈ 0.166 µM) | 0.06 µg/mL (≈ 0.2 µM) | 0.3 µg/mL (≈ 0.998 µM) | 0.32 µg/mL (≈ 1.06 µM) | – | – | – | – | – |
| COc1ccc(NC2=C(Cl)C(=O)c3ccncc3C2=O)cc1 | 0.5 µg/mL (≈ 1.59 µM) | 0.02 µg/mL (≈ 0.0635 µM) | 0.02 µg/mL (≈ 0.0635 µM) | 0.28 µg/mL (≈ 0.89 µM) | 0.31 µg/mL (≈ 0.985 µM) | – | – | – | – | – |
| O=C1C(Cl)=C(Nc2ccc(F)cc2)C(=O)c2ncccc21 | 1.25 µg/mL (≈ 4.13 µM) | 0.18 µg/mL (≈ 0.595 µM) | 1.39 µg/mL (≈ 4.59 µM) | 0.5 µg/mL (≈ 1.65 µM) | 0.36 µg/mL (≈ 1.19 µM) | – | – | – | – | – |
| CCc1ccc(NC2=C(Cl)C(=O)c3cccnc3C2=O)cc1 | 1.35 µg/mL (≈ 4.32 µM) | 1.39 µg/mL (≈ 4.44 µM) | 1.97 µg/mL (≈ 6.3 µM) | 1.35 µg/mL (≈ 4.32 µM) | 0.66 µg/mL (≈ 2.11 µM) | – | – | – | – | – |
| CCc1ccc(NC2=C(Cl)C(=O)c3ccncc3C2=O)cc1 | 0.62 µg/mL (≈ 1.98 µM) | 0.05 µg/mL (≈ 0.16 µM) | 0.07 µg/mL (≈ 0.224 µM) | 0.34 µg/mL (≈ 1.09 µM) | 0.33 µg/mL (≈ 1.06 µM) | – | – | – | – | – |
| O=C1C(Cl)=C(Nc2ccc(CCO)cc2)C(=O)c2ncccc21 | 1.11 µg/mL (≈ 3.38 µM) | 0.48 µg/mL (≈ 1.46 µM) | 0.36 µg/mL (≈ 1.1 µM) | 0.42 µg/mL (≈ 1.28 µM) | 0.52 µg/mL (≈ 1.58 µM) | – | – | – | – | – |
| COC1=C(N)C(=O)c2nc(-c3nc(C(=O)O)c(C)c(-c4ccc(OC)c(OC)c4O)c3N)ccc2C1=O [STREPTONIGRIN] | 0.33 µg/mL (≈ 0.652 µM) | 0.02 µg/mL (≈ 0.0395 µM) | 0.02 µg/mL (≈ 0.0395 µM) | 0.28 µg/mL (≈ 0.553 µM) | 0.31 µg/mL (≈ 0.612 µM) | – | – | – | – | – |
| CISPLATIN | – | – | – | – | – | 1.8 µg/mL | 2.9 µg/mL | 1.38 µg/mL | 2.07 µg/mL | 2.74 µg/mL |

Source: ChEMBL document CHEMBL1131674, “Synthesis and cytotoxic activities of 6-chloro-7-arylamino-5,8-isoquinolinediones” (Bioorg Med Chem Lett, 1999)
